The results in this text go back to patent US12077503B2, “Substituted cyclic amides and their use as herbicides” (FMC CORPORATION, priority 2015, dated 2024).

Holding throughout (assay): Test A preemergence
Type in all cases: in vivo

One experiment concerns Kochia (Kochia scoparia). The note with it: Bassia scoparia, pre-emergence, 240 h, preemergence, 0 to 100 scale where 0 is no effect and 100 is complete control, read-out: Kochia plant response rating; for pest or weed control at 125 g/ha: 125 g ai/ha, visual injury rating, approximately 10 d; for pest or weed control at 500 g/ha: 500 g ai/ha. Summed up:
(§1)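 Compounds were formulated in a non-phytotoxic solvent mixture with surfactant and applied as a preemergence directed soil spray after seeding, or sprayed postemergence over plants 2 to 10 cm tall at the one- to two-leaf stage. Evaluation after about 10 d compared treated with untreated controls, using a scale from 0 (no effect) to 100 (complete control).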

Experiment [1] concerns barnyardgrass (Echinochloa crus-galli). To be noted: Echinochloa crus-galli, pre-emergence, 240 h, preemergence, 0 to 100 scale where 0 is no effect and 100 is complete control, read-out: Barnyardgrass plant response rating; for pest or weed control at 125 g/ha: 125 g ai/ha, visual injury rating, approximately 10 d; for pest or weed control at 500 g/ha: 500 g ai/ha. An outline of the steps:
as §1

Experiment [2] relates to giant foxtail (Setaria faberii). To be noted: Setaria faberi, pre-emergence, 240 h, preemergence, 0 to 100 scale where 0 is no effect and 100 is complete control, read-out: Foxtail, Giant plant response rating; for pest or weed control at 125 g/ha: 125 g ai/ha, visual injury rating, approximately 10 d; for pest or weed control at 500 g/ha: 500 g ai/ha. An outline of the steps:
as §1

Experiment [3] has as its system pigweed (Amaranthus retroflexus). The note with it: Amaranthus retroflexus, pre-emergence, 240 h, preemergence, 0 to 100 scale where 0 is no effect and 100 is complete control, read-out: Pigweed plant response rating; for pest or weed control at 125 g/ha: 125 g ai/ha, visual injury rating, approximately 10 d; for pest or weed control at 500 g/ha: 500 g ai/ha.
Experiment [4] relates to ragweed (common ragweed, Ambrosia elatior). The note with it: Ambrosia artemisiifolia, pre-emergence, 240 h, preemergence, 0 to 100 scale where 0 is no effect and 100 is complete control, read-out: Ragweed plant response rating; for pest or weed control at 125 g/ha: 125 g ai/ha, visual injury rating, approximately 10 d; for pest or weed control at 500 g/ha: 500 g ai/ha. Summed up:
as §1

In experiment [5] the test system is ryegrass, Italian (Italian ryegrass, Lolium multiflorum). The note with it: Lolium multiflorum, pre-emergence, 240 h, preemergence, 0 to 100 scale where 0 is no effect and 100 is complete control, read-out: Ryegrass, Italian plant response rating; for pest or weed control at 125 g/ha: 125 g ai/ha, visual injury rating, approximately 10 d; for pest or weed control at 500 g/ha: 500 g ai/ha. An outline of the steps:
as §1

SMILES strings stand for the structures.

Turning to `CSc1ccccc1NC(=O)[C@H]1C(=O)N(C)C[C@@H]1c1ccc(F)cc1` [Compound 1236], the pest or weed control at 125 g/ha turned out to be 20% with Kochia (Kochia scoparia); 90% in experiment [1]; 90% in experiment [2]; 60% in experiment [3]; 0% in experiment [4]; 30% in experiment [5]. Besides, the pest or weed control at 500 g/ha with Kochia (Kochia scoparia) is 90%; in experiment [1], 100%; in experiment [2] it was 100%; in experiment [3] it was 90%; in experiment [4] it was 30%; in experiment [5], 80%.

As to `O=C1NC[C@H](c2cccc(C(F)(F)F)c2)C1C(=O)Nc1c(F)cccc1CO` (stereo partly drawn) [Compound 1240], the pest or weed control at 125 g/ha (in the experiment with Kochia (Kochia scoparia); in experiment [1]; in experiment [2]; in experiment [3]; in experiment [4]; in experiment [5]) was 0% each time. The pest or weed control at 500 g/ha (in the experiment on Kochia (Kochia scoparia); in experiment [1]; in experiment [2]; in experiment [3]; in experiment [4]; in experiment [5]) was 0% throughout.

For the compound `O=C1NC[C@H](c2cccc(C(F)(F)F)c2)C1C(=O)Nc1ccccc1CO` (stereo partly drawn) [Compound 1244], the pest or weed control at 125 g/ha with Kochia (Kochia scoparia) was 0%; in experiment [1], 80%; in experiment [2], 90%; in experiment [3], 0%; in experiment [4] it was 0%; in experiment [5], 0%. Further, the pest or weed control at 500 g/ha with Kochia (Kochia scoparia) was 0%; in experiment [1], 90%; in experiment [2] it was 90%; in experiment [3], 0%; in experiment [4] it was 0%; in experiment [5], 50%.

In the case of `CCc1ccc([C@H]2CNC(=O)[C@@H]2C(=O)Nc2c(F)cccc2F)cc1` [Compound 1248], the pest or weed control at 125 g/ha in the experiment on Kochia (Kochia scoparia) is 0%; in experiment [1], 70%; in experiment [2], 0%; in experiment [3], 0%; in experiment [4] it was 0%; in experiment [5] it was 0%. The pest or weed control at 500 g/ha with Kochia (Kochia scoparia) was 0%; in experiment [1] it was 90%; in experiment [2] it was 50%; in experiment [3], 0%; in experiment [4], 0%; in experiment [5] it was 0%.

In the case of `CN1C[C@H](c2ccc(F)c(C#N)c2)[C@@H](C(=O)Nc2cccc(F)c2F)C1=O` [Compound 1255], the pest or weed control at 125 g/ha in the experiment with Kochia (Kochia scoparia) was determined as 60%; in experiment [1], 100%; in experiment [2], 100%; in experiment [3], 60%; in experiment [4], 20%; in experiment [5], 20%. Further, the pest or weed control at 500 g/ha was 80% in the experiment on Kochia (Kochia scoparia); 100% in experiment [1]; 100% in experiment [2]; 90% in experiment [3]; 70% in experiment [4]; 40% in experiment [5].
